Consider ten compounds from article PMC11513854, “De novo GTP synthesis is a metabolic vulnerability for the interception of brain metastases” (Cell Reports Medicine, 2024).

Usually IC50 stands for the concentration that gives 50% inhibition. By Papp A→B is commonly meant the apparent permeability from the apical to the basolateral side of a cell layer. What is called Papp B→A is the apparent permeability from the basolateral to the apical side of a cell layer. A word on the efflux ratio: it is the permeability from basolateral to apical divided by that in the opposite direction, in the common usage. One may read the fraction unbound as the share of the substance not bound to proteins or other matrix. Lower therefore signals extensive binding.

Each structure is given as a SMILES string.

Data set [1] deals with neural stem cells. The experiment in a line: Dose-response assay, PrestoBlue, normal brain cell control. The settings on record: Homo sapiens, 72-h treatment, N/A, not applicable. The class given is cell-based. From the text:
BM cell lines from primary lung (BT478, BT530), breast (BT923, BT930) and melanoma (BT673, BT917) cancers are derived from primary patient samples with written consent from the patients and approved by the Hamilton Health Sciences McMaster Health Sciences Research Ethics Board (REB #07366), in compliance with Canada’s Tri-Council Policy Statement on the Ethical Conduct for Research Involving Humans and International Ethical guidelines for Biomedical Research Involving Human Subjects. MDA-MB-231 was purchasedfrom American Type Culture Collection and used to generate a brain metastasis derivate following injection into the mammary fat pad and isolation from the brain at human endpoint. Cell lines are maintained in NeuroCult Complete (NCC) media consisting of NeuroCult NS-A Basal Medium (Stemcell technology #05750) and supplemented with 50 mL of NeuroCult Supplement, 20 ng/mL epidermal growth factor (EGF), 10 ng/mL fibroblast growth factor (FGF), 2 μg/mL heparin and 1% penicillin-streptomycin. Human fetal neural stem cells (hNSCs) are derived in-house using a previously described protocol.[62] Normal human astrocytes are purchased from American Type Culture Collection. All cell lines were maintained at 37°C with a humidified atmosphere of 5% CO2.
The half maximal inhibitory concentration (IC50) is determined by plotting percent cell viability by the logarithmic concentration of drug. IC80 concentrations will be used for subsequent functional assays (cell proliferation, sphere formation), as determined by the following formula: ICF=100−F/F^1/H×IC50 where F = fraction of maximal response and H = hill slope.

Data set [2] deals with lung-BMIC line (BT478). Put plainly: Dose-response assay, PrestoBlue. The class given is cell-based, human. The settings on record: Homo sapiens; BT478, 72-h treatment, PrestoBlue; N/A, not applicable; read-out: Lung-BM IC50. As to the method:
(§1) For preliminary drug screening, drugs were plated at a concentration of 10 μM in a 96-well plate, in triplicate at a density of 1000 cells/well, and incubated at 37°C with a humidified atmosphere of 5% CO2 for three days. Vehicle controls for cell death are used in each functional experiment. Following treatment, PrestoBlue (20 μL, Invitrogen), a resazurin-based cell viability reagent and fluorescence indicator of cell metabolism, was added to each well to estimate proliferation approximately 2 h prior to measuring fluorescence intensity via FLUOstar Omega Fluorescence 556 Microplate reader (BMG LABTECH) at an excitation and emission wavelength of 540 nm and 590 nm, respectively. Results were analyzed using Omega analysis software.
Dose-response assays were conducted using the same protocol apart from drugs being plated using 2-fold serial dilutions (20 μM - 39 nM) as previously described.[66] The half maximal inhibitory concentration (IC50) is determined by plotting percent cell viability by the logarithmic concentration of drug. IC80 concentrations will be used for subsequent functional assays (cell proliferation, sphere formation), as determined by the following formula: ICF=100−F/F^1/H×IC50 where F = fraction of maximal response and H = hill slope.

In data set [3] the test system is MDR1. The experiment in a line: Bi-directional permeability via MDR1-MDCKII cells. Format: in vitro ADME. To be noted: dog, MDCK-MDR1, pH 7.4; 2 μM (digoxin 10 μM), 2.5 h. On the procedure:
(§2) MDR1-MDCKII permeability assays were performed by Wuxi AppTec Co. Briefly, MDR1-MDCK1 cells were seeded onto polycarbonate membranes in 96-well insert system plates and allowed to develop into monolayers. […] The plate was incubated for 2.5 h (37°C, 5% CO2) and the media was sampled on either side and the compound present was quantified by LC-MS/MS and the concentrations were used to calculate the efflux ratio. Digoxin (10 μM), nadolol (2 μM), and metoprolol (2 μM) were used as controls.

The subject of data set [4] is MDR1-MDCKII cells. Put plainly: Bi-directional permeability via MDR1-MDCKII cells. The class given is in vitro ADME. As to the method: as §2
Data set [5] deals with patient-derived lung-BMIC line (BT478). The experiment in a line: Preliminary drug screen of CMap compounds, PrestoBlue viability. The class given is cell-based, human. To be noted: 10 μM, 72 h, PrestoBlue readout.
From the text: In this work, we aimed to identify potential druggable targets for BM, by characterizing the transcriptomes of pre-metastatic lung-, breast-, and melanoma-BMICs (see Figure 1A).[13]^,[14] We identified 3,951 genes that are commonly differentially expressed in the pre-metastatic cohort of cells compared to BMICs isolated from established patient tumors (Figure 1C).[14] We input the shared gene signature of pre-metastatic BMICs (defined by the commonly shared gene signature from BMICs of all three primary tumor cohorts) as a query signature for computational CMap[17] analysis to identify compounds that evoke opposing transcriptional changes (see Figure 1A). […]
as §1, with “Vehicle controls for cell death are used in each functional experiment.” left out

Data set [6] is described as follows: Brain homogenate binding, equilibrium dialysis. The settings on record: CD-1, mouse, pooled brain homogenate, pH 7.4, 37°C. The class given is in vitro ADME, mouse. As to the method:
The samples were applied to a dialysis well plate and sealed with dialysis membrane. Dialysis buffer (100 mM sodium phosphate pH 7.4, 150 mM NaCl) was applied to opposite side of the membrane (receiver well of the plate), and samples were incubated at 37°C with 5% CO2 for 4 h. Following completion of incubation period, samples were recovered from each side of the dialysis membrane and processed by protein precipitation, and analysis by LC-MS/MS for compound concentration. A corresponding set of samples was also prepared and stop solution (acetonitrile containing 200 ng/mL tolbutamide and 200 ng/mL labetalol) was immediately added, and samples were obtained from each side of the dialysis plate for mass spectrometric analysis.
For orientation: Equilibrium dialysis compares concentrations on both sides of a semipermeable membrane.

Take `COc1c(C)c2c(c(O)c1C/C=C(\C)CCC(=O)NCCN1CCCC1)C(=O)OC2` [Compound 6]: the IC50 in data set [1] was 70.8 µM; in data set [2], 24.7 µM.

For the compound `COc1c(C)c2c(c(O)c1C/C=C(\C)CCC(=O)OCCN1CCN(C(=O)OC(C)(C)C)CC1)C(=O)OC2` [Compound 2], the IC50 was found to be 353 µM in data set [1] and 17.1 µM in data set [2].

In data set [1], `COc1c(C)c2c(c(O)c1C/C=C(\C)CCC(=O)NCCCN1CCC1)C(=O)OC2` [Compound 5] showed an IC50 of 182 µM.

Compound `CC(C)(C)NCC(O)COc1cccc2c1CC(O)C(O)C2` (stereo not drawn) [Nadolol] displayed a Papp A→B at 2.5 h, 2 μM in data set [3] of 0.198 ×10⁻⁶ cm/s. For the same compound, the “Rank of Papp” value in data set [4] is “Low”.

Turning to `COc1c(C)c2c(c(O)c1C/C=C(\C)CCC(=O)N1CCN(C)CC1)C(=O)OC2` [Compound 4], in data set [1], the IC50 worked out at 493 µM.

Turning to `C[C@H]1O[C@@H](O[C@H]2[C@@H](O)C[C@H](O[C@H]3[C@@H](O)C[C@H](O[C@H]4CC[C@@]5(C)[C@H](CC[C@@H]6[C@@H]5C[C@@H](O)[C@]5(C)[C@@H](C7=CC(=O)OC7)CC[C@]65O)C4)O[C@@H]3C)O[C@@H]2C)C[C@H](O)[C@@H]1O` [Digoxin], in data set [3], the Papp A→B at 2.5 h, 2 μM was 0.556 ×10⁻⁶ cm/s; the Papp B→A at 2.5 h, 2 μM came out at 11.8 ×10⁻⁶ cm/s; the efflux ratio at 2.5 h, 2 μM worked out at 21.2. The “Rank of Papp” value in data set [4] was “Low”.

In data set [3], `COCCc1ccc(OCC(O)CNC(C)C)cc1` (stereo not drawn) [Metoprolol] yielded a Papp A→B at 2.5 h, 2 μM of 29.5 ×10⁻⁶ cm/s. For the same compound, the “Rank of Papp” value in data set [4] is “High”.

For `CN1CCc2cccc3c2[C@H]1Cc1ccc(O)c(O)c1-3` [apomorphine], the “viability of lung-BMICs (BT478) compared to vehicle control” value in data set [5] is given as “significantly inhibited BMIC viability”.

With `COc1c(C)c2c(c(O)c1C/C=C(\C)CCC(=O)OCCN1CCOCC1)C(=O)OC2` [MMF (1), Mycophenolate mofetil], the IC50 is 31.2 µM in data set [1] and 48 µM in data set [2].

As for `CC(C)NCC(O)COc1cccc2ccccc12` (stereo not drawn) [Propranolol], in data set [6], the fraction unbound at 4 h, 2 μM is 0.023.
